Results as given in patent publication US20050152967A1, “Dynamic variable release” (PFab, LP, priority 2003, published 2005).

Key:
[1] = in vitro dissolution (acid/base dissolution bath, USP apparatus, HPLC); type: physicochemical
Description: The amount of active dissolution over time, e.g., guaifenesin and/or phenylephrine in the tablets or capsules disclosed herein below may be tested as follows. Briefly, in vitro guaifenesin or phenylephrine release may be determined using an acid/base dissolution bath, e.g., a standard USP 23/NF Drug Release Apparatus. Dissolution vessels of a USP calibrated dissolution bath, equipped with shafts and paddles, are filled with 675 ml of 0.1N hydrochloric acid at 37.0 degrees Centigrade. The bath and vessels are maintained at a temperature of 37.0±0.5 degrees Centigrade throughout a standard 7 hour dissolution test. […] One tablet or capsule is dropped into each vessel.
At the testing intervals, e.g., 1 minute, 10, 10, 30, 45, 60 or 90 minutes, 2, 3, 4, 6, 7, 9 or 12 hour testing intervals, an aliquot, e.g., 5 mls of dissolution solution is withdrawn from each vessel, filtered (e.g., through a 10-22 micron polyethylene filter) and tested using an HPLC. To stop the dissolution a strong base may be added to the sample, e.g., 0.2M sodium phosphate tribasic to increase the pH of the solution to about 6.8. The percent dissolution is determined using HPLC.

[2] = water and alcohol; cited from earlier work
[3] = accelerated stability of capsules (dissolution and assay over time); type: physicochemical
Description: The material was placed on accelerated stability.
Stability: Capsules were studied for stability.

Row | SMILES | release profile for gauifenesin ([1]; sustain releasing both actives) | solubility [2] | potency on accelerated stability [3] | released immediately ([3]; capsules on accelerated stability) | release of phenylephrine ([1]; phenylephrine overcoated with immediate release gauifenesin) | dissolution rate of phenylephrine ([1]; when combined with Gauifenesin DC) | release profile ([3]; capsules on accelerated stability, month to month)
1 | COc1ccccc1OCC(O)CO (stereo not shown) [Guaifenesin, 3(2-methoxyphenoxy)-1,2-propanediol] | poor release profile | soluble in water and alcohol | stable potency | 100% |  |  | 
2 | CNC[C@@H](O)c1cccc(O)c1.Cl [Phenylephrine hydrochloride, (S)-3-hydroxy-α[(methylamino)methyl]benzenemethanol hydrochloride] |  |  |  |  | slowed the release of the phenylephrine to an unacceptable level | accelerated | first order release profile consistent with an 8 hour product
